Reference: patent publication US8217000B2, “Method for elevating prolactin in mammals” (Cara Therapeutics, Inc., priority 2006, dated 2012)
Where a name gives a salt, the structure may show the parent alone. Non-standard residues stand in square brackets, D forms with d. Residues, ends and D or L forms follow the SMILES beside them. *: point of attachment. NH(4-picolyl) = c1cc(CN*)ccn1; dNle = CCCC[C@@H](N)C(=O)O

Assay: Plasma pharmacokinetics of CR665 after single IV infusion in human subjects
Details: for AUC(0-inf) / clearance / Cmax / MRT / Vd / half-life / Tmax / AUC(0-t): male, human, plasma, iv; for AUC(0-inf): AUC0-∞; for clearance: CL; for MRT: MRTint; for half-life: t1/2, males; for Tmax: median; for AUC(0-t): AUC0-t; for MRTint, geometric least squares mean: Parts A & B
Method: This clinical study was conducted as a double blind, placebo controlled, ascending single intravenous (IV) dose, sequential group study. This study was double blind and placebo controlled in order to avoid bias in the collection and evaluation of data during its conduct. […] In each group, subjects received CR665 or placebo. Doses were administered as a single constant rate IV infusion over 1 hour (part A) or 5 minutes (part B) on the morning of Day 1. Doses were administered in an escalating manner following satisfactory review of the safety data and pharmacokinetic data from the lower dose levels. There was a minimum of 6 days between dose escalations to allow sufficient time for an adequate safety review.
Plasma and urine samples for the analysis of CR665 and N oxide metabolite were prepared by solid phase extraction. The centrifuged eluates were quantified by liquid chromatography with tandem mass spectrometric detection (LC MS/MS). The lower limit of quantification was 1 ng/mL.
For pharmacokinetic assessments, blood samples (1×3 mL) were taken from the contralateral forearm vein(s) at the following times: Pre-dose, 15 minutes, 30 minutes, 45 minutes, 1 hour (immediately prior to the end of infusion), 1 hour 5 minutes, 1 hour 10 minutes, 1 hour 15 minutes, 1.5, 2, 2.5, 3, 4, 6, 8, 12, 16, 24, 36 and 48 hours after the start of the infusion). An indwelling cannula (Venflon®; BOC Ohmeda AB, Sweden) was used for all blood collection pre-dose and up to at least 12 hours after the start of the infusion. Otherwise, samples were collected using venipuncture. Blood samples were collected into pre-chilled 3 mL K3EDTA Vacutainer™ tubes (Becton Dickinson UK, Ltd., Oxford) and, after mixing, were placed in a cool box containing crushed ice/water. The samples were centrifuged, within 30 minutes of collection, at 1500 g for 10 minutes at approximately 4° C. For each sample, the separated plasma was transferred into two 5 mL suitably labeled polypropylene tubes, and stored immediately at approximately −20° C. Plasma samples were analyzed for CR665 using liquid chromatography with tandem mass spectrometric detection.
The pharmacokinetic analysis was conducted using WinNonlin Enterprise Version 4.0.1.
Pharmacokinetic parameters were determined from the plasma and urine, concentrations of CR665 and the N-oxide metabolite using non compartmental procedures.
Dose and body weight normalized values (norm) were determined for AUC0-t, AUC0-∞, Cinf and Cmax. Body weight normalized values [norm] were determined for Vz, Vss, CL and CLR.
The pharmacokinetic analysis was conducted using model independent methods as implemented in WinNonlin software, based on plasma concentrations of CR665 from those subjects who have received CR665 and have evaluable plasma concentration-time profiles.
The following plasma pharmacokinetic parameters were determined for CR665: • Cmax Maximum plasma concentration • tmax Time of maximum plasma concentration • t1/2z Terminal half-life=ln(2)/λz • AUC0-1 Area under the plasma concentration-time curve from time zero to time t (time of last quantifiable plasma concentration) • AUCinf Area under the plasma concentration-time curve from time zero to infinity calculated as [AUC0-t+(Clast/λz)] where Clast is the estimated concentration at the last quantifiable concentration curve. • λz Terminal-phase rate constant, also known as Kel • CL Total body clearance=Dose/AUCinf • Vz Volume of distribution based on terminal phase calculated as Vz/F=Dose/λz*AUCinf
Individual elapsed sampling times were used in the pharmacokinetic analysis. Cmax and tmax were obtained directly from the experimental observations. For the purpose of calculating AUC0-t, when two consecutive plasma concentrations below the lower limit of quantification (LLOQ) were encountered after tmax, all subsequent values were excluded from the analysis.

[1] = 0.06 mg/kg, males, 5-minute IV infusion, geometric mean
[2] = 0.06 mg/kg, males, 1 hour IV infusion, geometric mean
[3] = 0.09 mg/kg, males, 5-minute IV infusion, geometric mean
[4] = 0.12 mg/kg, males, 1 hour IV infusion, geometric mean
[5] = 0.24 mg/kg, males, 1 hour IV infusion, geometric mean
[6] = 0.36 mg/kg, males, 1 hour IV infusion, geometric mean
[7] = 0.42 mg/kg, males, 1 hour IV infusion, geometric mean
[8] = 0.48 mg/kg, males, 1 hour IV infusion, geometric mean
[9] = males, all doses, 5-minute infusion

Q: Which AUC(0-inf) [1] does the source give for `CCCC[C@@H](NC(=O)[C@@H](Cc1ccccc1)NC(=O)[C@H](N)Cc1ccccc1)C(=O)N[C@H](CCCNC(=N)N)C(=O)NCc1ccncc1` [CR665, D-phenylalanyl-D-phenylalanyl-D-norleucyl-N-(4-pyridinylmethyl)-D-argininamide, acetate salt] (H-[dF][dF][dNle][dR]-{NH(4-picolyl)}) here?
A: Its AUC(0-inf) is 142 ng·h/mL.

Q: And the AUC(0-inf) [2]?
A: The AUC(0-inf) was 132 ng·h/mL.

Q: And the clearance [1]?
A: The clearance was 553 mL/min.

Q: What about the clearance [2] of the same compound?
A: Its clearance is 564 mL/min.

Q: What about the Cmax [1] of the same compound?
A: Its Cmax is 624 ng/mL.

Q: What about the Cmax [2] of the same compound?
A: Its Cmax is 119 ng/mL.

Q: What about the MRT [1] of the same compound?
A: The MRT was 30.1 min.

Q: And the MRT [2]?
A: The MRT was 33.8 min.

Q: And the Vd (0.06 mg/kg, Vss, males, 0.06 mg/kg, 5-minute IV infusion, geometric mean)?
A: The Vd was 16.6 L.

Q: And the Vd (0.06 mg/kg, Vss, males, 0.06 mg/kg, 1 hour IV infusion, geometric mean)?
A: The Vd was 19 L.

Q: What about the Vd (0.06 mg/kg, Vz, males, 5-minute IV infusion, geometric mean) of the same compound?
A: Its Vd is 48 L.

Q: And the Vd (0.06 mg/kg, Vz, males, 1 hour IV infusion, geometric mean)?
A: Its Vd is 35.5 L.

Q: And the half-life (0.06 mg/kg, 5-minute IV infusion, geometric mean)?
A: The half-life was 60 min.

Q: What about the half-life (0.06 mg/kg, 1 hour IV infusion, geometric mean) of the same compound?
A: The half-life was 43.7 min.

Q: And the Tmax (0.06 mg/kg, males, 5-minute IV infusion)?
A: The Tmax was 5 min.

Q: What about the Tmax (0.06 mg/kg, males, 1 hour IV infusion) of the same compound?
A: The Tmax was 52.5 min.

Q: What about the AUC(0-t) [3] of the same compound?
A: Its AUC(0-t) is 209 ng·h/mL.

Q: What about the AUC(0-inf) [3] of the same compound?
A: The AUC(0-inf) was 213 ng·h/mL.

Q: What about the clearance [3] of the same compound?
A: The clearance was 575 mL/min.

Q: What about the Cmax [3] of the same compound?
A: The Cmax was 783 ng/mL.

Q: What about the MRT [3] of the same compound?
A: Its MRT is 32.2 min.

Q: What about the Vd (0.09 mg/kg, Vss, males, 0.09 mg/kg, 5-minute IV infusion, geometric mean) of the same compound?
A: Its Vd is 18.5 L.

Q: And the Vd (0.09 mg/kg, Vz, males, 5-minute IV infusion, geometric mean)?
A: Its Vd is 56.7 L.

Q: And the half-life (0.09 mg/kg, 5-minute IV infusion, geometric mean)?
A: Its half-life is 68.4 min.

Q: What about the Tmax (0.09 mg/kg, males, 5-minute IV infusion) of the same compound?
A: The Tmax was 5 min.

Q: And the AUC(0-t) [4]?
A: The AUC(0-t) was 267 ng·h/mL.

Q: What about the AUC(0-inf) [4] of the same compound?
A: The AUC(0-inf) was 270 ng·h/mL.

Q: What about the clearance [4] of the same compound?
A: The clearance was 533 mL/min.

Q: And the Cmax [4]?
A: Its Cmax is 231 ng/mL.

Q: What about the MRT [4] of the same compound?
A: Its MRT is 43.4 min.

Q: What about the Vd (0.12 mg/kg, Vss, males, 0.12 mg/kg, 1 hour IV infusion, geometric mean) of the same compound?
A: Its Vd is 23.1 L.

Q: And the Vd (0.12 mg/kg, Vz, males, 1 hour IV infusion, geometric mean)?
A: The Vd was 75.9 L.

Q: And the half-life (0.12 mg/kg, 1 hour IV infusion, geometric mean)?
A: The half-life was 99 min.

Q: And the Tmax (0.12 mg/kg, males, 1 hour IV infusion)?
A: Its Tmax is 45 min.

Q: What about the AUC(0-t) [5] of the same compound?
A: The AUC(0-t) was 474 ng·h/mL.

Q: And the AUC(0-inf) [5]?
A: Its AUC(0-inf) is 478 ng·h/mL.

Q: What about the clearance [5] of the same compound?
A: Its clearance is 629 mL/min.

Q: And the Cmax [5]?
A: Its Cmax is 431 ng/mL.

Q: And the MRT [5]?
A: Its MRT is 36.8 min.

Q: And the Vd (0.24 mg/kg, Vss, males, 0.24 mg/kg, 1 hour IV infusion, geometric mean)?
A: The Vd was 23.2 L.

Q: And the Vd (0.24 mg/kg, Vz, males, 1 hour IV infusion, geometric mean)?
A: Its Vd is 74.6 L.

Q: And the half-life (0.24 mg/kg, 1 hour IV infusion, geometric mean)?
A: The half-life was 82.2 min.

Q: And the Tmax (0.24 mg/kg, males, 1 hour IV infusion)?
A: The Tmax was 60 min.

Q: And the AUC(0-t) [6]?
A: The AUC(0-t) was 808 ng·h/mL.

Q: And the AUC(0-inf) [6]?
A: The AUC(0-inf) was 812 ng·h/mL.

Q: What about the clearance [6] of the same compound?
A: The clearance was 569 mL/min.

Q: And the Cmax [6]?
A: Its Cmax is 779 ng/mL.

Q: What about the MRT [6] of the same compound?
A: Its MRT is 37.4 min.

Q: And the Vd (0.36 mg/kg, Vss, males, 0.36 mg/kg, 1 hour IV infusion, geometric mean)?
A: The Vd was 21.2 L.

Q: And the Vd (0.36 mg/kg, Vz, males, 1 hour IV infusion, geometric mean)?
A: Its Vd is 80.6 L.

Q: And the half-life (0.36 mg/kg, 1 hour IV infusion, geometric mean)?
A: The half-life was 98.4 min.

Q: And the Tmax (0.36 mg/kg, males, 1 hour IV infusion)?
A: The Tmax was 60 min.

Q: And the AUC(0-t) [7]?
A: The AUC(0-t) was 1080 ng·h/mL.

Q: And the AUC(0-inf) [7]?
A: The AUC(0-inf) was 1080 ng·h/mL.

Q: And the clearance [7]?
A: Its clearance is 504 mL/min.

Q: What about the Cmax [7] of the same compound?
A: The Cmax was 943 ng/mL.

Q: What about the MRT [7] of the same compound?
A: Its MRT is 37.1 min.

Q: What about the Vd (0.42 mg/kg, Vss, males, 0.42 mg/kg, 1 hour IV infusion, geometric mean) of the same compound?
A: Its Vd is 18.7 L.

Q: And the Vd (0.42 mg/kg, Vz, males, 1 hour IV infusion, geometric mean)?
A: Its Vd is 77.9 L.

Q: And the half-life (0.42 mg/kg, 1 hour IV infusion, geometric mean)?
A: Its half-life is 107 min.

Q: And the Tmax (0.42 mg/kg, males, 1 hour IV infusion)?
A: Its Tmax is 60 min.

Q: And the AUC(0-t) [8]?
A: The AUC(0-t) was 1120 ng·h/mL.

Q: And the AUC(0-inf) [8]?
A: The AUC(0-inf) was 1120 ng·h/mL.

Q: And the clearance [8]?
A: Its clearance is 576 mL/min.

Q: And the Cmax [8]?
A: The Cmax was 982 ng/mL.

Q: And the MRT [8]?
A: Its MRT is 38.9 min.

Q: And the Vd (0.48 mg/kg, Vss, males, 0.48 mg/kg, 1 hour IV infusion, geometric mean)?
A: Its Vd is 22.4 L.

Q: What about the Vd (0.48 mg/kg, Vz, males, 1 hour IV infusion, geometric mean) of the same compound?
A: Its Vd is 93.3 L.

Q: What about the half-life (0.48 mg/kg, 1 hour IV infusion, geometric mean) of the same compound?
A: The half-life was 112 min.

Q: What about the Tmax (0.48 mg/kg, males, 1 hour IV infusion) of the same compound?
A: Its Tmax is 52.5 min.

Q: What about the “AUC0-t (norm), ratio of geometric least squares means 5-minute:1-hour” value (males) of the same compound?
A: The value was 1.02.

Q: What about the “AUC0-∞ (norm), ratio of geometric least squares means 5-minute:1-hour” value (males) of the same compound?
A: Its value is 1.04.

Q: What about the “CL, ratio of geometric least squares means 5-minute:1-hour” value (males) of the same compound?
A: Its value is 0.964.

Q: And the “Cmax (norm), ratio of geometric least squares means 5-minute:1-hour” value (males)?
A: Its value is 4.49.

Q: What about the “Cmax, fold higher for the 5-minute compared to the 1-hour infusion” value (males) of the same compound?
A: The value was “approximately 4.5 fold”.

Q: And the “MRTint, ratio of geometric least squares means 5-minute:1-hour” value (males)?
A: The value was 0.923.

Q: And the “Vss, ratio of geometric least squares means 5-minute:1-hour” value (males)?
A: The value was 0.900.

Q: What about the “Vz, ratio of geometric least squares means 5-minute:1-hour” value (males) of the same compound?
A: Its value is 1.03.

Q: What about the “t1/2, ratio of geometric least squares means 5-minute:1-hour” value (males) of the same compound?
A: Its value is 1.02.

Q: What about the MRTint (males, 0.24 mg/kg, 1 hour IV infusion, geometric mean) of the same compound?
A: Its MRTint is 36.8 min.

Q: What about the “MRTint, geometric least squares mean” value (males, 1-hour infusion) of the same compound?
A: Its value is 36.3 min.

Q: And the “MRTint, geometric least squares mean” value (males, 5-minute infusion)?
A: The value was 33.5 min.

Q: What about the “Pooled between-subject variability for AUC0-∞” value [9] of the same compound?
A: The value was 15.3%.

Q: What about the “Pooled between-subject variability for Cmax” value [9] of the same compound?
A: The value was 24.1%.
